Test results as given in PMC4425608 (Pharmaceutical research, 2014).
“Also recorded” adds a separate entry of the source. Where two headings read alike, the source gives them in different places.

Assays:
GHB uptake in KNRK cells = experiment: Inhibition of [3H]GHB uptake in KNRK cells; format: cell-based; conditions: rat KNRK cells
[1] = Pharmacokinetics of AR-C155858 in rats following intravenous administration; conditions: 0.1, 1, and 5 mg/kg i.v. bolus
MCT4 = conditions: expressed in Xenopus laevis oocytes; cited from earlier work
MCT2 = conditions: expressed in Xenopus laevis oocytes; cited from earlier work
[2] = system: GHB-induced respiratory depression; conditions: rats, mean (SD), cited from earlier work
[3] = rats, mean (SD), cited from earlier work
[4] = GHB blood-brain partitioning at steady state; conditions: rats; GHB 400 mg/kg i.v. bolus + 208 mg/kg/h i.v. infusion alone; 4 h; mean ± SD
[5] = Oral GHB toxicokinetics with and without AR-C155858
[6] = rats, cited from earlier work
[7] = GHB 1500 mg/kg i.v. bolus alone
[8] = male, Sprague-Dawley, rat, plasma, po, 1500 mg/kg
[9] = rats, GHB 1500 mg/kg oral gavage alone, mean (SD)

In the case of `Cc1n[nH]c(C)c1Cc1sc2c(c1C(=O)N1C[C@H](O)CO1)c(=O)n(C)c(=O)n2CC(C)C` [AR-C155858, 6-[(3,5-Dimethyl-1H-pyrazol-4-yl)methyl]-5-[[(4S)-4-hydroxy-2-isoxazolidinyl]carbonyl]-3-methyl-1-(2-methylpropyl)thieno[2,3-d]pyrimidine-2,4(1H,3H)-dione], the “pre-incubation time giving maximal inhibition of GHB uptake” value (GHB uptake in KNRK cells; 100 nM AR-C155858, pre-incubation 0-60 min) is reported as 30 min, the “concentration giving maximal inhibition of GHB uptake” value (GHB uptake in KNRK cells; 30 min pre-incubation) is reported as 100 nM and the “reversibility of inhibition of GHB uptake after washing the cells” value (GHB uptake in KNRK cells; 30 min pre-incubation with 100 nM, washed 3 times) is reported as “not to be rapidly reversible”. For the same compound, the “inhibition of GHB uptake” value (GHB uptake in KNRK cells; linear trend in inhibition up to 30 nM, 30 min pre-incubation) was 70%, the “AR-C155858 plasma concentration-time profile” value [1] was “biexponential decline and dose-proportional pharmacokinetics” and the “inhibition of MCT4” value (MCT4) was “no inhibition; also recorded: does not inhibit”. The “inhibition of MCT2” value (MCT2) was “potently inhibited; also recorded: can also inhibit”.

For `O=C(O)CCCO` [GHB, γ-hydroxybutyric acid], the “AUEC, area under the effect curve for breathing frequency” value (from here on “AUEC, area under the effect curve”) ([2]; GHB 200 mg/kg i.v. bolus alone) is given as 2243 (1508) breaths, the “Emax, maximum effect on breathing frequency” value (from here on “Emax, maximum effect”) ([2]; GHB 200 mg/kg i.v. bolus alone) is given as 51.9 (8.51) breaths/ min and the “Td, duration of effect on breathing frequency” value (shortened to “Td, duration of effect”) ([2]; GHB 200 mg/kg i.v. bolus alone) is given as 113 (60.6) min. For the same compound, the “AUEC, area under the effect curve” value ([2]; GHB 600 mg/kg i.v. bolus alone) was 7987 (1228) breaths, the “Emax, maximum effect” value ([2]; GHB 600 mg/kg i.v. bolus alone) was 29.5 (6.94) breaths/ min and the “Td, duration of effect” value ([2]; GHB 600 mg/kg i.v. bolus alone) was 153 (12.5) min. The “AUEC, area under the effect curve” value [2, 7] was 12505 (1995) breaths, the “Emax, maximum effect” value [2, 7] was 15.6 (7.05) breaths/ min and the “Td, duration of effect” value [2, 7] was 281 (72.8) min. For the same compound, the “GHB AUC” value ([3]; GHB 200 mg/kg i.v. bolus alone) was 26.2 (0.90) mg.min/ml, the “GHB CLR (renal clearance)” value ([3]; GHB 200 mg/kg i.v. bolus alone) was 0.44 (0.20) ml/min/kg and the “GHB CLT (total clearance)” value ([3]; GHB 200 mg/kg i.v. bolus alone) was 7.60 (0.29) ml/min/kg. The GHB urinary recovery ([3]; GHB 200 mg/kg i.v. bolus alone) was 5.90 (2.86) %, the “GHB AUC” value ([3]; GHB 600 mg/kg i.v. bolus alone) was 102 (12.4) mg.min/ml and the “GHB CLR (renal clearance)” value ([3]; GHB 600 mg/kg i.v. bolus alone) was 1.68 (0.75) ml/min/kg. For the same compound, the GHB urinary recovery ([3]; GHB 600 mg/kg i.v. bolus alone) was 27.3 (9.77) %, the “GHB AUC” value [3, 7] was 288 (39.8) mg.min/ml and the “GHB CLT (total clearance)” value [3, 7] was 5.16 (0.70) ml/min/kg. For the same compound, the GHB urinary recovery [3, 7] was 61.1 (5.02) %, the “Cbrain, brain GHB concentration at steady-state” value [4] was 0.22 ± 0.03 mg/g and the “Cplasma, plasma GHB concentration at steady-state” value [4] was 0.87 ± 0.05 mg/mL. For the same compound, the CL/F [5, 8] was 6.52 mL/min/kg, the Cmax [5, 8] was 659 µg/mL and the CL renal ([5]; male, Sprague-Dawley, rat, urine and plasma, po, 1500 mg/kg) was 1.82 mL/min/kg. For the same compound, the “GHB AUC” value [5, 9] was 233 (30.0) mg.min/ml and the GHB urinary excretion [5, 9] was 28.2 (10.1) %.

For `C[C@H](O)C(=O)O` [L-lactate], the “effect on GHB extracellular fluid concentrations in the frontal cortex” value ([6]; higher doses, plasma steady state L-lactate concentrations ≈ 4–5 mM) is given as “decreased” and the “effect on GHB extracellular fluid concentrations in the frontal cortex” value ([6]; lower doses, plasma steady state L-lactate concentrations ≈ 1–2 mM) is given as “no significant effect”.
